The text below walks through data of patent US10124008B2, “Use of inhibitors of acid sphingomyelinase to treat acquired and inherited retinal degenerations” (Wisconsin Alumni Research Foundation, priority 2014, dated 2018).

The subject of series [1] is LC3B-II and p62 in primary RPE monolayers. As to the kind of experiment: Immunoblotting of LC3B-II and p62 in polarized primary RPE monolayers. Format: cell-based, porcine. On the procedure:
RPE harvested from mouse eyecups were sonicated in lysis buffer with protease inhibitors for 10 min. Primary RPE on TRANSWELL filters were harvested and lysed with NE-PER nuclear and cytoplasmic extraction reagents (Thermo Scientific #78833) according to the manufacturer's recommendation. Protein concentrations were measured with DC assay (BioRad). […] Proteins were then transferred onto nitrocellulose membrane using IBLOT dry transfer system (INVITROGEN), blocked in 5% milk in TBS-T for 1 hour before incubating in primary antibody overnight at 4° C. Membranes were probed with antibodies to LC3B (1:3000, Novus NB600-1384 for pig and 1:500, Sigma L7543 for mouse), p62/SQSTM1 (1:1000, ARP03-GP62-C) and actin (1:5000, Santa Cruz) followed by horseradish peroxidase-conjugated secondary antibodies. Immunoblots were visualized by ECL substrate (Thermo Scientific) and quantified using Image Studio (LI-COR). […] Other drugs used were the mTOR inhibitors Torin 1 and Torin 2 (50 nM and 1.5 μM, respectively, for 2 h, TOCRIS), the vacuolar ATPase inhibitor bafilomycin A1 (100 nM for 2 h, EMD Millipore), the LXRα agonist TO901317 (1 μM for 20 h, Cayman Chemicals), the HDAC6 inhibitor trichostatin A (TSA, 500 nM, 16 h, Sigma) and the ASMase inhibitor desipramine (10 μM for 3 h, Sigma). To depolymerize MTs, cells were treated with 33 μM nocodazole for 30 minutes, followed by cold-treatment (4° C.) for 30 minutes (Kreitzer et al., 2003). At the concentrations and exposure times used, none of these drugs caused alterations in RPE cell morphology or physiology (monitored by TER measurements, ZO-1 and organelle marker staining). […] Conversion of LC3B-I to its lipidated form (LC3B-II) is an indicator of autophagosome biogenesis and p62 levels are a measure of autophagic flux (Klionsky et al., 2012).
On the technique in general: Immunoblotting shows a protein as a band on a membrane.

A further series concerns primary RPE cells. The series is described as follows: Live imaging of tandem fluorescent mRFP-GFP-LC3 (tfLC3), autophagic flux. Format: cell-based, porcine. Conditions: for autophagic flux / autophagosome-lysosome fusion (tfLC3 EGFP:mRFP): RPE with A2E, 3 h drug incubation (TO901317 1 μM 20 h); for autophagy after mTOR inhibition: polarized primary RPE, Torin 1 50 nM and Torin 2 1.5 μM, 2 h. On the procedure:
RPE cells were transfected with EGFP-LC3 or tandem fluorescent mRFP-GFP-LC3 (Addgene) using the AMAXA NUCLEOFECTOR II (Lonza). Approximately 1.5 million cells and 5 μg of plasmid DNA were used for each transfection. Cells were plated either on serum-coated glass-bottom dishes (Mattek) or […] filters at confluence.
Andor IQ2 software was used for image acquisition and Imaris x64 (Bitplane) for image analysis. […] Trafficking data was collected from three separate transfections for a total of at least 12-30 movies captured for treatment. During image acquisition care was taken to maintain the same laser power, exposure and electron-multiplying gain settings. […] After background subtraction (using the background subtraction algorithm and identical automatic threshold for all images) and smoothing (Gaussian algorithm with identical threshold settings for all images), Spots and Tracks algorithms were used to identify vesicles and follow them through time and cell-space to obtain total track length and track displacement.
We used tandem fluorescent mRFP-GFP-LC3 (tfLC3) to monitor autophagy in primary RPE cells in real time.
(§1) We performed two initial screens: first, we compared the ability of functional inhibitors (fluoxetine and amitriptyline) with that of the lone structural ASMase inhibitor zoledronic acid in decreasing acetylated tubulin. Here, polarized RPE monolayers with or without A2E were treated with one of the three inhibitors (10 μM, 3 h). Desipramine as a positive control. At the end of the incubation period, cells were fixed and stained for acetylated tubulin, imaged and the amount of acetylated tubulin in the cells was quantified. Second, we evaluated three additional drugs (sertraline, astemizole and fexofenadine) for their abilities to increase autophagy in the RPE. Cells with or without bisretinoids were transfected with mRFP-GFP-LC3, starved to induce autophagy, treated with drugs and imaged as in FIG. 9D.

Series [2] concerns EGFP-LC3-labeled autophagosomes in primary RPE. The series is described as follows: Live imaging of EGFP-LC3 autophagosome trafficking (spinning disk, Boolean gating). Format: cell-based, porcine. As to the method:
RPE cells were transfected with EGFP-LC3 or tandem fluorescent mRFP-GFP-LC3 (Addgene) using the AMAXA NUCLEOFECTOR II (Lonza). Approximately 1.5 million cells and 5 μg of plasmid DNA were used for each transfection. Cells were plated either on serum-coated glass-bottom dishes (Mattek) or TRANSWELL filters at confluence. Live imaging of autophagosome traffic and autophagic flux were performed on the Revolution XD spinning disk microscopy system (Andor) equipped with the Yokogawa CSU-X1 confocal spinning disk head, Nikon Eclipse Ti inverted microscope surrounded by an Okolab cage incubator, iXon x3 897 EM-CCD camera, Andor laser combiner with four solid state lasers at 405, 488, 561, and 640 nm and corresponding band-pass filter sets (Sutter), and ASI motorized stage with piezo-Z for rapid Z-stack acquisition. Andor IQ2 software was used for image acquisition and Imaris x64 (Bitplane) for image analysis. For live imaging, cells were serum starved for 2 h to induce autophagy and rapid z-stacks were acquired using the 100×1.49 NA Apo TIRF objective (Nikon) for ˜50 frames at 37° C. Trafficking data was collected from three separate transfections for a total of at least 12-30 movies captured for treatment. During image acquisition care was taken to maintain the same laser power, exposure and electron-multiplying gain settings. Trafficking analysis was carried out using the Spots and Tracks modules of the Imaris software (Liu et al., 2010). After background subtraction (using the background subtraction algorithm and identical automatic threshold for all images) and smoothing (Gaussian algorithm with identical threshold settings for all images), Spots and Tracks algorithms were used to identify vesicles and follow them through time and cell-space to obtain total track length and track displacement. […] Data were analyzed using either a two-tailed t-test or one-way ANOVA followed by Bonferroni or Dunnett's post-tests (GraphPad PRISM). Unless otherwise stated, data are presented as Mean±S.E.M. of ≥3 independent experiments, with 3 to 4 replicates per condition per experiment. […] Regions were defined by: minimum or maximum track length, minimum or maximum displacement and a slope of 0.5 (displacement divided by length). Tracks with slope <0.5 were taken as less straight (region 2) than those with slope of >0.5 (region 3). Tracks within each region are represented as a percent of total number of tracks in Tables 1 and 2. One-way ANOVA or t-tests were used to compare regions between treatment groups. […] To examine the efficiency of autophagosome transport, Spots and Tracks algorithms in Imaris were used to calculate how far each autophagosome traveled (track displacement length) as a function of the movement required to travel that distance (total track length) (Liu et al., 2010).

The subject of series [3] is acetylated tubulin in polarized primary RPE. The series is described as follows: Immunofluorescence staining of acetylated and tyrosinated tubulin. Format: cell-based, porcine. The note with it: for acetylated tubulin in RPE with A2E: inhibitors 10 μM for 3 h, 48 h after A2E treatment. As to the method: ALEXAFLUOR secondary antibodies were used at 1:500 and rhodamine-phalloidin (Cytoskeleton, PHDR1) at 1:200. Filters were mounted under coverslips on glass slides under […] (Vector labs), sealed and visualized with Andor Revolution XD spinning disk confocal microscope using a 60×1.4 NA oil objective with identical exposures and gains for each antibody. Acetylated tubulin-labeled stable microtubules (≥5 μm in length) after nocodazole treatment were analyzed manually in the Surpass mode of Imaris (Bitplane).
as §1

For series [4] the following is noted: Table 4, potential issues; cited from earlier work.
[5] abbreviates: A2E-laden RPE after mTOR inhibition, TO901317 1 μM 20 h, desipramine 10 μM 3 h.
Where [6] appears, read: percent of total EGFP-LC3 tracks, serum-starved RPE, TSA 500 nM.

Entries after “also recorded” stand apart in the source; their conditions may differ. Where only a bound is given, the exact number is not on record here.

For `CO/C1=C\C(C)=C\[C@@H](C)[C@@H](O)[C@@H](C)C/C(C)=C/C=C/[C@H](OC)[C@@H]([C@@H](C)[C@@H](O)[C@H](C)[C@@]2(O)C[C@@H](O)[C@H](C)[C@@H](C(C)C)O2)OC1=O` [Bafilomycin A1], the “LC3B-II levels (immunoblot)” value in series [1] (after mTOR inhibition, agent versus control RPE) is “increased LC3B-II after mTOR inhibition in control cells but not cells exposed to A2E”.

Regarding `CC(C)(C(=O)O)c1ccc(C(O)CCCN2CCC(C(O)(c3ccccc3)c3ccccc3)CC2)cc1` (stereo not shown) [Fexofenadine], in the series with primary RPE cells, the “autophagic flux / autophagosome-lysosome fusion (tfLC3 EGFP:mRFP)” value is recorded as “not as effective as astemizole, sertraline or desipramine in increasing autophagic flux”.

With `O=S(=O)(c1ccccc1)N(CC(F)(F)F)c1ccc(C(O)(C(F)(F)F)C(F)(F)F)cc1` [TO901317], in series [1] (setting [5]), the “LC3B-II levels / autophagosome biogenesis (immunoblot)” value was “increased autophagosome biogenesis” and the “p62 levels / autophagic flux (immunoblot)” value is on record as “significantly lesser than corresponding condition without TO901317”. The “autophagic flux / autophagosome-lysosome fusion (tfLC3 EGFP:mRFP)” value with primary RPE cells was “restored autophagic flux in cells with A2E and decreased EGFP fluorescence back to control levels”.

As to `CC(/C=C/C(=O)NO)=C\[C@@H](C)C(=O)c1ccc(N(C)C)cc1` [TSA, trichostatin A], the “autophagosome trafficking (long-range, directed movements)” value in series [2] (agent alone versus control RPE) is on record as “replicated the autophagosome trafficking defects seen in cells with A2E”. Moreover, in series [2] (setting [6]), the “Region 1 (R1) (D <2 μm, L <5 μm)” value worked out at 88.01% and the “Region 3 (R3) (L >5 μm, Slope >0.5 μm)” value is reported as 1.64%.

On to `CCC(=O)N1CCN(c2ccc(-n3c(=O)ccc4cnc5ccc(-c6cnc7ccccc7c6)cc5c43)cc2C(F)(F)F)CC1` [Torin 1], for which the “autophagy after mTOR inhibition” value with primary RPE cells was “autophagy was upregulated”.

`Nc1ccc(-c2ccc3ncc4ccc(=O)n(-c5cccc(C(F)(F)F)c5)c4c3c2)cn1` [Torin 2]: the “autophagy after mTOR inhibition” value in the series on primary RPE cells is recorded as “autophagy was upregulated”.

For `CCN(CC)CCO[C@H]1CC[C@@]2(C)C(=CC[C@@H]3[C@@H]2CC[C@]2(C)C(=O)CC[C@@H]32)C1` [U18666A], the acetylated tubulin entry in series [3] (agent alone versus control RPE, U18666A 1 μM, 16 h) is “Acetylated tubulin also increased”.

On to `CN(C)CCC=C1c2ccccc2CCc2ccccc21` [amitriptyline], for which the “acetylated tubulin in RPE with A2E” value in series [3] was “as effective as desipramine in decreasing acetylated tubulin; also recorded: decreased acetylated tubulin levels in RPE with A2E back to control levels”.

Consider `COc1ccc(CCN2CCC(Nc3nc4ccccc4n3Cc3ccc(F)cc3)CC2)cc1` [astemizole], for which the “autophagic flux / autophagosome-lysosome fusion (tfLC3 EGFP:mRFP)” value with primary RPE cells is recorded as “completely reversed the autophagic block induced by A2E”.

Regarding `CNCCC(Oc1ccc(C(F)(F)F)cc1)c1ccccc1` (stereo not shown) [fluoxetine], the “acetylated tubulin in RPE with A2E” value in series [3] is “as effective as desipramine in decreasing acetylated tubulin; also recorded: decreased acetylated tubulin levels in RPE with A2E back to control levels”.

As to `CN[C@H]1CC[C@@H](c2ccc(Cl)c(Cl)c2)c2ccccc21` [sertraline], in the series on primary RPE cells, the “autophagic flux / autophagosome-lysosome fusion (tfLC3 EGFP:mRFP)” value is reported as “completely reversed the autophagic block induced by A2E”.

In the case of `O=P(O)(O)C(O)(Cn1ccnc1)P(=O)(O)O` [zoledronic acid], the oral bioavailability in series [4] is listed as less than 4% oral.
